Source: PMC11637438, “Chickpea NCR13 disulfide cross-linking variants exhibit profound differences in antifungal activity and modes of action” (PLOS Pathogens, 2024)
Read-outs that look alike come from different tables or passages of the source. Ends that are not written are not given here. Peptide text beside a SMILES is read from it.

Test system: B. cinerea
Type: cell-based, Botrytis cinerea
Settings: for fold reduction in antifungal activity relative to NCR13_CS: reduced peptides
Experimental: B. cinerea strain T4 was cultured in V8 medium for 3 weeks at 25°C. Fungal spores were collected by flooding the fungal growth plates with water and scraped using a sterile spreader. The spore suspension was filtered through two layers of Miracloth, followed by centrifugation at 12,000 g for 2 minutes (min) and subsequently washed twice with sterile water. Lastly, fungal spores were resuspended in Synthetic Fungal Media (SFM). The spore suspension was adjusted to the desired spore density of about 10^5 spores/mL using a hemocytometer. Fusarium virguliforme (F. virguliforme) was grown and maintained regularly in potato dextrose agar (PDA) (Difco Laboratories) medium. Two weeks old F. virguliforme plates were used to collect spores as described above for B. cinerea followed by centrifugation and washing steps. Spores were counted using a hemocytometer and adjusted to the final concentration of 10^5 spores/mL in 2X SFM media. Sclerotinia sclerotiorum obtained from the field of pennycress in Illinois was grown on PDA medium at room temperature.
The antifungal activity of NCR13 against fungal pathogens was determined using the resazurin cell viability assay, as described previously. Briefly, 45 μL of each peptide dilution (0, 0.09, 0.1875, 0.375, 0.75, 1.5, 3, and 6 μM) was added to each well of the microtiter plate containing 45 μL (~10^5 spores/mL) of spore suspension. Three biological replicates were used for each treatment and the experiments were repeated three times. Resazurin at 0.1% (w/v) was added to each well after incubation for 48 h. Images were taken at ~24 h. The Minimum Inhibitory Concentration (MIC) for each peptide denotes the lowest concentration at which the peptide halts the growth of fungus evident through a lack of color change from blue to […]. The in vitro antifungal activity of NCR13_PFVs against S. sclerotiorum was determined using a 24-well plate assay as previously described. Mycelial plugs (1 mm in diameter) cut from the growing edge of the two day-old actively growing colony were transferred from PDA media to a series of wells containing 250 μL of SFM.

[1] = B. cinerea, resazurin assay in SFM, ~10^5 spores/mL, resazurin added after 48 h, three biological replicates

| Compound | Minimal Inhibitory Concentration (MIC) [1] | Minimal Inhibitory Concentration (MIC) (48 h) [µM] | also measured |
| --- | --- | --- | --- |
| CC[C@H](C)[C@H](NC(=O)[C@H](CS)NC(=O)[C@H](CCCCN)NC(=O)[C@@H]1CCCN1C(=O)[C@@H](NC(=O)[C@H](CCCCN)NC(=O)[C@@H]1CCCN1C(=O)[C@H](CCCCN)NC(=O)[C@H](CCCNC(=N)N)NC(=O)[C@H](CS)NC(=O)[C@H](C)NC(=O)[C@H](Cc1ccccc1)NC(=O)[C@H](CCCCN)NC(=O)[C@H](CCCCN)NC(=O)[C@H](CS)NC(=O)[C@H](CC(=O)O)NC(=O)[C@H](CCCCN)NC(=O)[C@H](CC(=O)O)NC(=O)[C@H](CO)NC(=O)[C@H](CCC(N)=O)NC(=O)[C@H](CS)NC(=O)[C@@H]1CCCN1C(=O)[C@H](CCCCN)NC(=O)[C@@H](N)[C@@H](C)O)C(C)C)C(=O)N[C@@H](CC(N)=O)C(=O)NCC(=O)N[C@@H](Cc1ccccc1)C(=O)N[C@@H](CS)C(=O)N[C@@H](CCCCN)C(=O)N[C@@H](CS)C(=O)N[C@H](C(=O)N[C@@H](CCCNC(=N)N)C(=O)O)C(C)C [NCR13_CS] (H-TKPCQSDKDCKKFACRKPKVPKCINGFCKCVR-OH; N-terminus and C-terminus assumed) | 3 µM |  | fold decrease in antifungal activity compared to NCR13_PFV1 (B. cinerea): ~33 fold; fold decrease in antifungal activity compared to NCR13_PFV2 (B. cinerea): 2 fold |
| CC(C)[C@H](NC(=O)[C@H](CS)NC(=O)[C@H](CCCCN)NC(=O)[C@H](CS)NC(=O)[C@H](C)NC(=O)[C@H](C)NC(=O)[C@H](C)NC(=O)[C@H](C)NC(=O)[C@H](CS)NC(=O)[C@H](CCCCN)NC(=O)[C@@H]1CCCN1C(=O)[C@@H](NC(=O)[C@H](CCCCN)NC(=O)[C@@H]1CCCN1C(=O)[C@H](CCCCN)NC(=O)[C@H](CCCNC(=N)N)NC(=O)[C@H](CS)NC(=O)[C@H](C)NC(=O)[C@H](Cc1ccccc1)NC(=O)[C@H](CCCCN)NC(=O)[C@H](CCCCN)NC(=O)[C@H](CS)NC(=O)[C@H](CC(=O)O)NC(=O)[C@H](CCCCN)NC(=O)[C@H](CC(=O)O)NC(=O)[C@H](CO)NC(=O)[C@H](CCC(N)=O)NC(=O)[C@H](CS)NC(=O)[C@@H]1CCCN1C(=O)[C@H](CCCCN)NC(=O)[C@@H](N)[C@@H](C)O)C(C)C)C(=O)N[C@@H](CCCNC(=N)N)C(=O)O [NCR13_AlaV5] (H-TKPCQSDKDCKKFACRKPKVPKCAAAACKCVR-OH; N-terminus and C-terminus assumed) |  | 12 | fold reduction in antifungal activity relative to NCR13_CS (B. cinerea): 4 fold |
| TKPSQSDKDSKKFASRKPKVPKSINGFSKSVR [NSR13] | Inactive | > 24 |  |
| CC[C@H](C)[C@H](NC(=O)[C@H](CS)NC(=O)[C@H](CCCCN)NC(=O)[C@@H]1CCCN1C(=O)[C@@H](NC(=O)[C@H](CCCCN)NC(=O)[C@@H]1CCCN1C(=O)[C@H](CCCCN)NC(=O)[C@H](CCCNC(=N)N)NC(=O)[C@H](CS)NC(=O)[C@H](C)NC(=O)[C@H](C)NC(=O)[C@H](C)NC(=O)[C@H](C)NC(=O)[C@H](CS)NC(=O)[C@H](CC(=O)O)NC(=O)[C@H](CCCCN)NC(=O)[C@H](CC(=O)O)NC(=O)[C@H](CO)NC(=O)[C@H](CCC(N)=O)NC(=O)[C@H](CS)NC(=O)[C@@H]1CCCN1C(=O)[C@H](CCCCN)NC(=O)[C@@H](N)[C@@H](C)O)C(C)C)C(=O)N[C@@H](CC(N)=O)C(=O)NCC(=O)N[C@@H](Cc1ccccc1)C(=O)N[C@@H](CS)C(=O)N[C@@H](CCCCN)C(=O)N[C@@H](CS)C(=O)N[C@H](C(=O)N[C@@H](CCCNC(=N)N)C(=O)O)C(C)C [NCR13_AlaV2] (H-TKPCQSDKDCAAAACRKPKVPKCINGFCKCVR-OH; N-terminus and C-terminus assumed) |  | > 12 |  |
| CC[C@H](C)[C@H](NC(=O)[C@H](CS)NC(=O)[C@H](C)NC(=O)[C@H](C)NC(=O)[C@H](C)NC(=O)[C@H](CCCCN)NC(=O)[C@@H]1CCCN1C(=O)[C@H](CCCCN)NC(=O)[C@H](CCCNC(=N)N)NC(=O)[C@H](CS)NC(=O)[C@H](C)NC(=O)[C@H](Cc1ccccc1)NC(=O)[C@H](CCCCN)NC(=O)[C@H](CCCCN)NC(=O)[C@H](CS)NC(=O)[C@H](CC(=O)O)NC(=O)[C@H](CCCCN)NC(=O)[C@H](CC(=O)O)NC(=O)[C@H](CO)NC(=O)[C@H](CCC(N)=O)NC(=O)[C@H](CS)NC(=O)[C@@H]1CCCN1C(=O)[C@H](CCCCN)NC(=O)[C@@H](N)[C@@H](C)O)C(=O)N[C@@H](CC(N)=O)C(=O)NCC(=O)N[C@@H](Cc1ccccc1)C(=O)N[C@@H](CS)C(=O)N[C@@H](CCCCN)C(=O)N[C@@H](CS)C(=O)N[C@H](C(=O)N[C@@H](CCCNC(=N)N)C(=O)O)C(C)C [NCR13_AlaV4] (H-TKPCQSDKDCKKFACRKPKAAACINGFCKCVR-OH; N-terminus and C-terminus assumed) |  | > 12 |  |
| CC(C)[C@H](NC(=O)[C@H](CCCCN)NC(=O)[C@@H]1CCCN1C(=O)[C@H](CCCCN)NC(=O)[C@H](CCCNC(=N)N)NC(=O)[C@H](CS)NC(=O)[C@H](C)NC(=O)[C@H](Cc1ccccc1)NC(=O)[C@H](CCCCN)NC(=O)[C@@H](N)CCCCN)C(=O)N1CCC[C@H]1C(=O)N[C@@H](CCCCN)C(=O)N[C@@H](CS)C(=O)O [NCR13 active motif] (H-KKFACRKPKVPKC-OH; N-terminus and C-terminus assumed) | 3 µM |  |  |
| CC[C@H](C)[C@H](NC(=O)[C@H](CS)NC(=O)[C@H](CCCCN)NC(=O)[C@@H]1CCCN1C(=O)[C@@H](NC(=O)[C@H](CCCCN)NC(=O)[C@@H]1CCCN1C(=O)[C@H](CCCCN)NC(=O)[C@H](CCCNC(=N)N)NC(=O)[C@H](CS)NC(=O)[C@H](C)NC(=O)[C@H](Cc1ccccc1)NC(=O)[C@H](CCCCN)NC(=O)[C@H](CCCCN)NC(=O)[C@H](CS)NC(=O)[C@H](C)NC(=O)[C@H](C)NC(=O)[C@H](C)NC(=O)[C@H](C)NC(=O)[C@H](C)NC(=O)[C@H](CS)NC(=O)[C@@H]1CCCN1C(=O)[C@H](CCCCN)NC(=O)[C@@H](N)[C@@H](C)O)C(C)C)C(=O)N[C@@H](CC(N)=O)C(=O)NCC(=O)N[C@@H](Cc1ccccc1)C(=O)N[C@@H](CS)C(=O)N[C@@H](CCCCN)C(=O)N[C@@H](CS)C(=O)N[C@H](C(=O)N[C@@H](CCCNC(=N)N)C(=O)O)C(C)C [NCR13_AlaV1] (H-TKPCAAAAACKKFACRKPKVPKCINGFCKCVR-OH; N-terminus and C-terminus assumed) |  | 6 | fold reduction in antifungal activity relative to NCR13_CS (B. cinerea): 2 fold |
